Key:
in vivo [1] = settings: Sprague-Dawley, rat, plasma, po, 3 mg/kg
in vivo [2] = settings: Sprague-Dawley, rat, po, 3 mg/kg
in vivo [3] = settings: Sprague-Dawley, rat, po, 3 mg/kg; remark: listed apart in the source
in vivo [4] = settings: Sprague-Dawley, rat, iv, 1 mg/kg
in vivo [5] = settings: Sprague-Dawley, rat, iv, 1 mg/kg; remark: listed apart in the source
in vivo [6] = settings: Sprague-Dawley, rat, po, 3 mg/kg; remark: listed apart in the source
in vivo [7] = settings: Sprague-Dawley, rat, 3 mg/kg
in vivo [8] = settings: Sprague-Dawley, rat, iv, 1 mg/kg; remark: listed apart in the source
in vivo [9] = settings: Sprague-Dawley, rat, liver, po, 3 mg/kg
in vivo [10] = settings: Sprague-Dawley, rat, po, 3 mg/kg; remark: listed apart in the source
in vivo [11] = settings: Sprague-Dawley, rat, po, 3 mg/kg; remark: listed apart in the source
in vivo [12] = settings: Sprague-Dawley, rat, liver, po, 3 mg/kg; remark: listed apart in the source
in vivo [13] = settings: Sprague-Dawley, rat, plasma, po, 3 mg/kg; remark: listed apart in the source

| concentration at 1 h (in vivo [1]) | Tmax (in vivo [2]) | bioavailability (in vivo [3]) | AUC(0-t) (in vivo [4]) | clearance (in vivo [5]) | half-life (in vivo [6]) | Vd (in vivo [7]) | MRT inf (in vivo [8]) | concentration at 4 h (in vivo [9]) | Cmax (in vivo [10]) | AUC(0-t) (in vivo [11]) | concentration at 1 h (in vivo [12]) | concentration at 4 h (in vivo [13]) | Structure (SMILES) |
| --- | --- | --- | --- | --- | --- | --- | --- | --- | --- | --- | --- | --- | --- |
| 1140 ng/mL | 22.8 min | 32.2% | 1930 ng·h/mL | 8.54 mL/min/kg | 1220 min | 0.84 L/kg | 102 min | 612 ng/mL | 590 ng/mL | 1860 ng·h/mL | 2340 ng/mL | 165 ng/mL | O=C(O)c1cc(F)c2nc(N3C4CCC3CC(F)(COCc3c(-c5ccccc5OC(F)(F)F)noc3C3CC3)C4)sc2c1 (configuration not stated) |
| 241 ng/mL | – | – | – | – | – | – | – | 929 ng/mL | – | – | 1550 ng/mL | 94.8 ng/mL | O=C(O)c1cc(F)c2nc(N3CCC(F)(COCc4c(-c5c(F)cccc5Cl)noc4C4CC4)CC3)sc2c1 |

More lines, now with the values behind:

| Structure (SMILES) | concentration at 1 h (in vivo [1]) | Tmax (in vivo [2]) | bioavailability (in vivo [3]) | AUC(0-t) (in vivo [4]) | clearance (in vivo [5]) | half-life (in vivo [6]) | Vd (in vivo [7]) | MRT inf (in vivo [8]) | concentration at 4 h (in vivo [9]) | Cmax (in vivo [10]) | AUC(0-t) (in vivo [11]) | concentration at 1 h (in vivo [12]) | concentration at 4 h (in vivo [13]) |
| --- | --- | --- | --- | --- | --- | --- | --- | --- | --- | --- | --- | --- | --- |
| CCn1cc(C(=O)O)c2ccc(N3CCC(F)(COCc4c(-c5c(F)cccc5Cl)noc4C4CC4)CC3)cc21 | 24 ng/mL | 15 min | 5.64% | 611 ng·h/mL | 26.4 mL/min/kg | 58.8 min | 0.81 L/kg | 30.6 min | 772 ng/mL | 117 ng/mL | 103 ng·h/mL | 656 ng/mL | 49 ng/mL |
| CCn1c(C(=O)O)cc2ccc(N3CCC(F)(COCc4c(-c5c(Cl)cccc5Cl)noc4C4CC4)CC3)cc21 | 6.3 ng/mL | – | – | – | – | – | – | – | 186 ng/mL | – | – | 72 ng/mL | 12.6 ng/mL |
| Cn1cc(C(=O)O)c2ccc(N3CCC(OCc4c(-c5c(Cl)cccc5Cl)noc4C4CC4)CC3)cc21 [TERN-101] | 19.3 ng/mL | 15 min | 32.4% | 201 ng·h/mL | 82.6 mL/min/kg | 133 min | 1.74 L/kg | 21 min | 153 ng/mL | 283 ng/mL | 195 ng·h/mL | 121 ng/mL | 52.1 ng/mL |

From ChEMBL document CHEMBL4699528, “Discovery and Optimization of Non-bile Acid FXR Agonists as Preclinical Candidates for the Treatment of Nonalcoholic Steatohepatitis” (J Med Chem, 2020)
